According to patent publication US20110172296A1, “MODULATION OF TRANSFORMING GROWTH FACTOR-BETA 1 EXPRESSION” (priority 2010, published 2011):
Values joined by “and” are separate entries in the source; they are usually repeats but may differ in a detail not shown here. Equal entries are not always repeated. e = 2'-O-(2-methoxyethyl) (MOE); d = 2'-deoxy (DNA)

Legend:
BALB/c mice [1] = test: Tolerability in BALB/c mice: liver, kidney and spleen weights (Example 8); assay type: in vivo, mouse
Experimental: The mice were sacrificed 2 days after the last administration and liver, spleen and kidney weights were measured. Plasma transaminase levels were also evaluated.
The weights of liver, kidney and spleen of the mice were measured after 4 weeks and liver weights are presented in Table 10 as a percentage change compared to the corresponding weights in the PBS control. The percentage changes in kidney and spleen weight in the treated mice compared to the PBS control were negligible and are not shown.

BALB/c mice [2] = conditions: mouse, in vivo
Experimental: (§1) These gapmer oligonucleotides were designed to target human TGF-beta1 and have varying degrees of mismatch with murine TGF-beta1 sequence, as shown in Table 1. Oligo ID Nos. 413982 and 414040 have greater than 3 mismatches to the murine TGF-beta1 sequence. Oligo ID No. 414035 has 2 mismatches to murine TGF-beta1. Oligo ID No. 414036 has no mismatches to murine TGF-beta1.
(§2) BALB/c mice were injected with 25 mg/kg or 50 mg/kg of Oligo ID Nos. 413982, 414035, 414036, or 414040 twice a week for 4 weeks. A control group of mice was injected with phosphate buffered saline (PBS) twice a week for 4 weeks. Plasma transaminase levels were evaluated bi-weekly.
(§3) To evaluate the impact of TGF-beta1 antisense oligonucleotides on the hepatic function of mice described above, plasma concentrations of transaminases were measured using an automated clinical chemistry analyzer (Hitachi Olympus AU400e, Melville, N.Y.).

human TGF-beta1 mRNA [3] = test: Dose-dependent antisense inhibition of human TGF-beta1 in HuVEC cells, Lipofectamine 2000, 0.3292-80 nM, comparison with oligos of U.S. Pat. No. 6,436,909 (Example 4); assay type: cell-based
Experimental: The dose-dependent antisense inhibition potential of these gapmers was compared with that of Oligo IDs 104992 and 1138498 from U.S. Pat. No. 6,436,909. Cells were plated at a density of 5,000 cells per well and transfected using Lipofectamine™ 2000 reagent with 0.3292 nM, 0.9877 nM, 2.963 nM, 8.8889 nM, 26.6667 nM, and 80 nM concentrations of antisense oligonucleotide for 4 hours, as specified in Table 4. After a recovery period of approximately 16 hours, RNA was isolated from the cells and TGF-beta1 mRNA levels were measured by quantitative real-time PCR. Human TGF-beta1 primer probe set RTS 2980 was used to measure mRNA levels. TGF-beta1 mRNA levels were adjusted according to total RNA content, as measured by RIBOGREEN®. Results are presented as percent inhibition of TGF-beta1, relative to untreated control cells. […] All the antisense oligonucleotides in Table 4 target human TGF-beta1 mRNA (SEQ ID NO: 1).

BALB/c mice [4] = test: Tolerability in BALB/c mice: plasma transaminases ALT and AST (Example 7); conditions: for aspartate transaminase levels: plasma
Experimental: as §1, §2, §3

human TGF-beta1 mRNA [5] = test: Dose-dependent confirmation of antisense inhibition of human TGF-beta1 in HuVEC cells, electroporation (Example 6); assay type: cell-based
Experimental: The gapmers from Example 5 (see Table 5) were also tested at various doses in HuVEC cells using electroporation as the transfection reagent. Cells were plated at a density of 20,000 cells per well and transfected using electroporation with 0.15625 nM, 0.3125 nM, 0.625 nM, 1.25 nM, 2.5 nM, 5 nM, 10 nM, and 20 nM concentrations of antisense oligonucleotide for 4 hours, as specified in Table 6. After a recovery period of approximately 16 hours, RNA was isolated from the cells and TGF-beta1 mRNA levels were measured by quantitative real-time PCR. TGF-beta1 mRNA levels were adjusted according to total RNA content, as measured by RIBOGREEN®. Results are presented as percent inhibition of TGF-beta1, relative to untreated control cells.

human TGF-beta1 mRNA [6] = test: Dose-dependent confirmation of antisense inhibition of human TGF-beta1 in HuVEC cells after large-scale synthesis, Lipofectamine 2000, 0.007-15 nM (Example 5); assay type: cell-based; conditions: for percent inhibition of TGF-beta1: Lipofectamine 2000
Experimental: Cells were plated at a density of 5,000 cells per well and transfected using Lipofectamine™ 2000 reagent with 0.007 nM, 0.021 nM, 0.062 nM, 0.185 nM, 0.556 nM, 1.667 nM, 5 nM, and 15 nM concentrations of antisense oligonucleotide for 4 hours, as specified in Table 5. After a recovery period of approximately 16 hours, RNA was isolated from the cells and TGF-beta1 mRNA levels were measured by quantitative real-time PCR. Human TGF-beta1 primer probe set RTS 2980 was used to measure mRNA levels. TGF-beta1 mRNA levels were adjusted according to total RNA content, as measured by RIBOGREEN®. Results are presented as percent inhibition of TGF-beta1, relative to untreated control cells.

human TGF-beta1 mRNA [7] = test: Antisense inhibition of human TGF-beta1 mRNA in HuVEC cells, single 10 nM dose, Lipofectamine 2000 (Example 2); assay type: cell-based
Outline: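 Percent inhibition relative to untreated controls, from qRT-PCR of mRNA corrected for total RNA (RIBOGREEN). Cells were exposed 4 h to 10 nM phosphorothioate 2-13-5 MOE gapmers with Lipofectamine 2000 at 5,000 cells/well. RNA was harvested after roughly 24 h recovery.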

human TGF-beta1 mRNA [8] = test: Dose-dependent antisense inhibition of human TGF-beta1 in HuVEC cells, Lipofectamine 2000, 0.9375-30 nM (Example 3); assay type: cell-based; conditions: Lipofectamine 2000
Experimental: Cells were plated at a density of 5,000 cells per well and transfected using Lipofectamine™ 2000 reagent with 0.9375 nM, 1.875 nM, 3.75 nM, 7.5 nM, 15 nM, and 30 nM concentrations of antisense oligonucleotide for 4 hours, as specified in Table 3. After a recovery period of approximately 16 hours, RNA was isolated from the cells and TGF-beta1 mRNA levels were measured by quantitative real-time PCR. Human TGF-beta1 primer probe set RTS 2980 (forward sequence CTCTCCGACCTGCCACAGA, SEQ ID NO: 160; reverse sequence […], SEQ ID NO: 53; probe sequence CCCTATTCAAGACCACCCACCTTCTGGTX, SEQ ID NO: 161) was used to measure mRNA levels. TGF-beta1 mRNA levels were adjusted according to total RNA content, as measured by RIBOGREEN®. Results are presented as percent inhibition of TGF-beta1, relative to untreated control cells.

105204 (antisense GTCCACCATTAGCACGCGGG; chemistry not given here) [compound 105204]
Liver % Weight change relative to PBS control (BALB/c mice [1]; 25 mg/kg twice a week for 4 weeks): +28%
Liver % Weight change relative to PBS control (BALB/c mice [1]; 50 mg/kg twice a week for 4 weeks): +73%
increase in liver weight (BALB/c mice [1]; 25 or 50 mg/kg twice a week for 4 weeks, vs PBS control): > 70%

413982 (antisense GCCTCCGGCTCCCAGCGGCA; sugars from the 5' end e2 d13 e5, backbone and methylation of C not given here) [compound 413982]
tolerability compared to Oligo ID 105204 (BALB/c mice [2]): improved tolerability
percent inhibition of TGF-beta1 (human TGF-beta1 mRNA [3]; 0.3292 nM): 76%
percent inhibition of TGF-beta1 (human TGF-beta1 mRNA [3]; 0.9877 nM): 87%
percent inhibition of TGF-beta1 (human TGF-beta1 mRNA [3]; 2.963 nM): 91%
percent inhibition of TGF-beta1 (human TGF-beta1 mRNA [3]; 8.8889 nM): 95%
percent inhibition of TGF-beta1 (human TGF-beta1 mRNA [3]; 26.6667 nM): 95%
percent inhibition of TGF-beta1 (human TGF-beta1 mRNA [3]; 80.0 nM): 93%
alanine transaminase levels (BALB/c mice [4]; 25 mg/kg twice a week, Week 2): 59 IU/L
alanine transaminase levels (BALB/c mice [4]; 25 mg/kg twice a week, Week 4): 140 IU/L
aspartate transaminase levels (BALB/c mice [4]; 25 mg/kg twice a week, Week 2): 74 IU/L
aspartate transaminase levels (BALB/c mice [4]; 25 mg/kg twice a week, Week 4): 161 IU/L
alanine transaminase levels (BALB/c mice [4]; 50 mg/kg twice a week, Week 2): 77 IU/L
alanine transaminase levels (BALB/c mice [4]; 50 mg/kg twice a week, Week 4): 462 IU/L
aspartate transaminase levels (BALB/c mice [4]; 50 mg/kg twice a week, Week 2): 92 IU/L
aspartate transaminase levels (BALB/c mice [4]; 50 mg/kg twice a week, Week 4): 460 IU/L
increase in ALT/AST (BALB/c mice [4]; 25 or 50 mg/kg twice a week for four weeks): < 16 fold
percent inhibition of TGF-beta1 mRNA relative to untreated control cells (human TGF-beta1 mRNA [5]; 0.15625 nM oligonucleotide): 26%
percent inhibition of TGF-beta1 mRNA relative to untreated control cells (human TGF-beta1 mRNA [5]; 0.3125 nM oligonucleotide): 32%
percent inhibition of TGF-beta1 mRNA relative to untreated control cells (human TGF-beta1 mRNA [5]; 0.625 nM oligonucleotide): 57%
percent inhibition of TGF-beta1 mRNA relative to untreated control cells (human TGF-beta1 mRNA [5]; 1.25 nM oligonucleotide): 79%
percent inhibition of TGF-beta1 mRNA relative to untreated control cells (human TGF-beta1 mRNA [5]; 2.5 nM oligonucleotide): 85%
percent inhibition of TGF-beta1 mRNA relative to untreated control cells (human TGF-beta1 mRNA [5]; 5.00 nM oligonucleotide): 89%
percent inhibition of TGF-beta1 mRNA relative to untreated control cells (human TGF-beta1 mRNA [5]; 10.00 nM oligonucleotide): 93%
percent inhibition of TGF-beta1 mRNA relative to untreated control cells (human TGF-beta1 mRNA [5]; 20 nM oligonucleotide): 96%
percent inhibition of TGF-beta1 (human TGF-beta1 mRNA [6]; 0.007 nM): 0%
percent inhibition of TGF-beta1 (human TGF-beta1 mRNA [6]; 0.021 nM): 14%
percent inhibition of TGF-beta1 (human TGF-beta1 mRNA [6]; 0.062 nM): 31%
percent inhibition of TGF-beta1 (human TGF-beta1 mRNA [6]; 0.185 nM): 56%
percent inhibition of TGF-beta1 (human TGF-beta1 mRNA [6]; 0.556 nM): 71%
percent inhibition of TGF-beta1 (human TGF-beta1 mRNA [6]; 1.667 nM): 79%
percent inhibition of TGF-beta1 (human TGF-beta1 mRNA [6]; 5 nM): 89%
percent inhibition of TGF-beta1 (human TGF-beta1 mRNA [6]; 15 nM): 92%
IC50 (human TGF-beta1 mRNA [6]; Lipofectamine 2000, Example 5): 0.24 nM
% inhibition (human TGF-beta1 mRNA [7]; 10 nM oligonucleotide, HuVEC, relative to untreated control cells, gapmers targeted to SEQ ID NO: 1): 88%
inhibition of a TGF-beta1 mRNA (human TGF-beta1 mRNA [7]; threshold lists of Oligo IDs, 10 nM): 60% and 65% and 70% and 75% and 80% and 85%
percent inhibition of TGF-beta1 (human TGF-beta1 mRNA [8]; 0.9375 nM): 56%
percent inhibition of TGF-beta1 (human TGF-beta1 mRNA [8]; 1.875 nM): 77%
percent inhibition of TGF-beta1 (human TGF-beta1 mRNA [8]; 3.75 nM): 88%
percent inhibition of TGF-beta1 (human TGF-beta1 mRNA [8]; 7.5 nM): 95%
percent inhibition of TGF-beta1 (human TGF-beta1 mRNA [8]; 15 nM): 96%
percent inhibition of TGF-beta1 (human TGF-beta1 mRNA [8]; 30 nM): 97%
